Test results published in PubChem BioAssay AID256 (DTP/NCI, 2004).
Values joined by “and” are separate entries in the source; they are usually repeats but may differ in a detail not shown here. Equal values may be shown once. Toxic doses and inconclusive results are not listed. How the source made its calls: active means survival T/C of 150% or more; inactive means T/C below 125% in these data.

Test system: CD2F1 mice, L1210 leukemia ip, survival T/C
Test: NCI In Vivo Anticancer Drug Screen. Data for tumor model L1210 Leukemia (intraperitoneal) in CD2F1 (CDF1) mice
Conditions: higher = longer survival
In short: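 Vehicle-treated tumor-bearing mice served as controls (C) for compound-treated mice (T). Reported figure is T divided by C.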

[1] = endpoint: mean survival time, dose: 100.0 mg/kg/injection, schedule: Q01DX009 (ip), vehicle: saline with Tween-80
[2] = endpoint: mean survival time, dose: 100.0 mg/kg/injection, schedule: Q04DX003 (ip), vehicle: saline with Tween-80
[3] = endpoint: mean survival time, dose: 100.0 mg/kg/injection, schedule: Q04DX003 (ip), vehicle: saline
[4] = endpoint: mean survival time, dose: 200.0 mg/kg/injection, schedule: Q04DX003 (ip), vehicle: saline with Tween-80
[5] = endpoint: mean survival time, dose: 25.0 mg/kg/injection, schedule: Q04DX002 (ip), vehicle: saline with Tween-80
[6] = endpoint: mean survival time, dose: 50.0 mg/kg/injection, schedule: Q04DX002 (ip), vehicle: saline with Tween-80
[7] = endpoint: mean survival time, dose: 100.0 mg/kg/injection, schedule: Q01DX001 (ip), vehicle: saline with Tween-80
[8] = endpoint: mean survival time, dose: 200.0 mg/kg/injection, schedule: Q01DX001 (ip), vehicle: saline with Tween-80
[9] = endpoint: mean survival time, dose: 100.0 mg/kg/injection, schedule: Q04DX002 (ip), vehicle: saline
[10] = endpoint: mean survival time, dose: 200.0 mg/kg/injection, schedule: Q04DX002 (ip), vehicle: saline
[11] = endpoint: mean survival time, dose: 200.0 mg/kg/injection, schedule: Q01DX009 (ip), vehicle: saline with Tween-80
[12] = endpoint: mean survival time, dose: 400.0 mg/kg/injection, schedule: Q01DX009 (ip), vehicle: saline with Tween-80
[13] = endpoint: mean survival time, dose: 400.0 mg/kg/injection, schedule: Q04DX003 (ip), vehicle: saline with Tween-80
[14] = endpoint: mean survival time, dose: 100.0 mg/kg/injection, schedule: Q01DX009 (ip), vehicle: saline
[15] = endpoint: mean survival time, dose: 200.0 mg/kg/injection, schedule: Q01DX009 (ip), vehicle: saline
[16] = endpoint: mean survival time, dose: 200.0 mg/kg/injection, schedule: Q04DX003 (ip), vehicle: saline
[17] = endpoint: mean survival time, dose: 50.0 mg/kg/injection, schedule: Q01DX009 (ip), vehicle: saline
[18] = endpoint: mean survival time, dose: 25.0 mg/kg/injection, schedule: Q04DX003 (ip), vehicle: saline with Tween-80
[19] = endpoint: mean survival time, dose: 50.0 mg/kg/injection, schedule: Q04DX003 (ip), vehicle: saline with Tween-80

Measured: T/C

O=C1c2ccccc2C(=O)c2cc(N3C(=O)C=CC3=O)ccc21
inactive: endpoint: mean survival time, dose: 100.0 mg/kg/injection, schedule: Q01DX001 (ip), vehicle: saline 97 % of control | endpoint: mean survival time, dose: 200.0 mg/kg/injection, schedule: Q01DX001 (ip), vehicle: saline 96 % of control

CCN(CC)CC#CCCCCN(CC)CC
inactive: endpoint: mean survival time, dose: 25.0 mg/kg/injection, schedule: Q01DX009 (ip), vehicle: saline with Tween-80 101 % of control | endpoint: mean survival time, dose: 25.0 mg/kg/injection, schedule: Q04DX003 (ip), vehicle: saline 96 % of control | endpoint: mean survival time, dose: 50.0 mg/kg/injection, schedule: Q01DX009 (ip), vehicle: saline with Tween-80 95 % of control | endpoint: mean survival time, dose: 50.0 mg/kg/injection, schedule: Q04DX003 (ip), vehicle: saline 94 % of control | [1] 93 % of control | [2] 94 % of control | [3] 94 % of control

CC(=O)Nc1cccc(C[P+](c2ccccc2)(c2ccccc2)c2ccccc2)c1
inactive: [2] 92 % of control | [4] 92 % of control

O=C(O)c1ccccc1C(=O)N1CCCCC1
inactive: endpoint: mean survival time, dose: 12.5 mg/kg/injection, schedule: Q04DX002 (ip), vehicle: saline with Tween-80 94 % of control | [5] 90 % of control | [6] 110 % of control

NNC(=O)CCCCCCCCCCCCCO
inactive: endpoint: mean survival time, dose: 50.0 mg/kg/injection, schedule: Q01DX001 (ip), vehicle: saline with Tween-80 98 % of control | [7] 101 % of control | [8] 101 % of control

OCC1OC(n2ccn(C3OC(CO)C(O)C3O)c2=S)C(O)C1O (configuration not stated)
inactive: endpoint: mean survival time, dose: 12.5 mg/kg/injection, schedule: Q01DX005 (ip), vehicle: water 98 % of control | endpoint: mean survival time, dose: 25.0 mg/kg/injection, schedule: Q01DX005 (ip), vehicle: water 106 % of control | endpoint: mean survival time, dose: 50.0 mg/kg/injection, schedule: Q01DX005 (ip), vehicle: water 96 % of control | endpoint: mean survival time, dose: 100.0 mg/kg/injection, schedule: Q01DX005 (ip), vehicle: water 98 % of control | endpoint: mean survival time, dose: 200.0 mg/kg/injection, schedule: Q01DX005 (ip), vehicle: water 102 % of control

CCN(CC)Cc1ccccc1COC(=O)c1ccccc1
inactive: [9] 98 % of control | [10] 111 % of control

N#CC(C(=O)N1CCCC1)=C(S)S
inactive: [1] 102 % of control | [2] 100 % of control | [11] 101 % of control | [4] 100 % of control | [12] 102 % of control | [13] 103 % of control

N#C/C=C1\NC(=O)CS1
inactive: [1] 114 % of control | [2] 96 % of control | [11] 101 % of control | [4] 100 % of control | [13] 102 % of control

CC(C)COC(=O)CN(CC(=O)OCC(C)C)c1ccccc1
inactive: [1] 96 % of control | [2] 110 % of control | [11] 98 % of control | [4] 97 % of control | [12] 103 % of control | [13] 97 % of control

Cc1cccc(CCl)n1
inactive: [14] 98 % of control | [3] 101 % of control | [15] 90 % of control | [16] 95 % of control | endpoint: mean survival time, dose: 400.0 mg/kg/injection, schedule: Q04DX003 (ip), vehicle: saline 87 % of control

CC(O)C(=O)[O][Hg][c]1ccccc1 (configuration not stated)
inactive: endpoint: mean survival time, dose: 10.0 mg/kg/injection, schedule: Q04DX003 (ip), vehicle: saline with Tween-80 92 % of control

CSc1nc(NC2OC(CO)C(O)C(O)C2O)cc(=O)n1C (configuration not stated)
inactive: endpoint: median survival time, dose: 12.5 mg/kg/injection, schedule: Q01DX005 (ip), vehicle: saline 102 % of control | endpoint: median survival time, dose: 25.0 mg/kg/injection, schedule: Q01DX005 (ip), vehicle: saline 100 % of control | endpoint: median survival time, dose: 50.0 mg/kg/injection, schedule: Q01DX005 (ip), vehicle: saline 102 % of control | endpoint: median survival time, dose: 100.0 mg/kg/injection, schedule: Q01DX005 (ip), vehicle: saline 102 % of control | endpoint: median survival time, dose: 200.0 mg/kg/injection, schedule: Q01DX005 (ip), vehicle: saline 100 % of control

CN(C)P1(=S)NCC(C(C)(C)C)CO1 (configuration not stated)
inactive: endpoint: mean survival time, dose: 15.63 mg/kg/injection, schedule: Q01DX001 (ip), vehicle: distilled water + Tween-80 103 % of control | endpoint: mean survival time, dose: 31.25 mg/kg/injection, schedule: Q01DX001 (ip), vehicle: distilled water + Tween-80 103 % of control | endpoint: mean survival time, dose: 62.5 mg/kg/injection, schedule: Q01DX001 (ip), vehicle: distilled water + Tween-80 103 % of control | endpoint: mean survival time, dose: 125.0 mg/kg/injection, schedule: Q01DX001 (ip), vehicle: distilled water + Tween-80 97 % of control | endpoint: mean survival time, dose: 250.0 mg/kg/injection, schedule: Q01DX001 (ip), vehicle: distilled water + Tween-80 92 % of control

CC1CC=C(/C=N/Nc2ccc([N+](=O)[O-])cc2[N+](=O)[O-])C(C)O1 (configuration not stated)
inactive: [7] 107 % of control | [8] 101 % of control | endpoint: mean survival time, dose: 400.0 mg/kg/injection, schedule: Q01DX001 (ip), vehicle: saline with Tween-80 98 % of control

NNC(=O)c1ccc(Cl)cc1Nc1cccc(Cl)c1
inactive: [2] 112 % of control | [4] 89 % of control

CCOC(=O)C(O)C(C)(Cl)c1ccccc1 (configuration not stated)
inactive: [5] 98 % of control | [6] 102 % of control | endpoint: mean survival time, dose: 100.0 mg/kg/injection, schedule: Q04DX002 (ip), vehicle: saline with Tween-80 95 % of control | endpoint: mean survival time, dose: 200.0 mg/kg/injection, schedule: Q04DX002 (ip), vehicle: saline with Tween-80 95 % of control

Cc1ccc(C2(SCC(N)C(=O)O)c3ccccc3-c3ccccc32)cc1 (configuration not stated)
inactive: endpoint: mean survival time, dose: 25.0 mg/kg/injection, schedule: Q01DX009 (ip), vehicle: saline 95 % of control | [17] 95 % of control | [14] 97 % of control | [15] 107 % of control

COc1ccc(N/C=C/C2=[N+](C)c3ccccc3C2(C)C)c(OC)c1
inactive: [17] 103 % of control | [14] 105 % of control | [3] 89 % of control | [15] 97 % of control | [16] 89 % of control

CCCCNC(=O)C(C)S(=O)(=O)c1ccc(C)cc1 (configuration not stated)
inactive: [1] 103 % of control | [11] 97 % of control | [12] 95 % of control

[Cl][Fe]([Cl])([Cl])[Cl].c1ccc(-c2cc(-c3ccccc3)[o+]c(-c3ccccc3)c2)cc1
inactive: [18] 87 % of control | [19] 87 % of control | [2] 86 % of control and 91 % of control

NCc1cccnc1
inactive: [9] 96 % of control | [10] 107 % of control | endpoint: mean survival time, dose: 400.0 mg/kg/injection, schedule: Q04DX002 (ip), vehicle: saline 111 % of control

CCOC(=O)Nc1cc2c3ccccc3ncc2c2ccccc12
inactive: [18] 94 % of control | [19] 86 % of control | [2] 87 % of control | [4] 89 % of control | [13] 101 % of control

O=C1OC(O)C(Br)=C1Br (configuration not stated)
inactive: endpoint: mean survival time, dose: 100.0 mg/kg/injection, schedule: Q04DX002 (ip), vehicle: Klucel (hydroxypropylcellulose) (HPC) 105 % of control | endpoint: mean survival time, dose: 200.0 mg/kg/injection, schedule: Q04DX002 (ip), vehicle: Klucel (hydroxypropylcellulose) (HPC) 91 % of control | endpoint: mean survival time, dose: 400.0 mg/kg/injection, schedule: Q04DX002 (ip), vehicle: Klucel (hydroxypropylcellulose) (HPC) 89 % of control
